Measured values as given in patent publication US12516038B2, “Inhibitors of antigen presentation by HLA-DR” (Janssen Pharmaceutica NV, priority 2020, dated 2026).
pIC50: −log10 of the molar value.

Key:
[1] = test system: human peripheral blood CD4+ helper T cells; test: Pan-CD4+ T cell activation (off-target assay); assay type: cell-based; settings: Homo sapiens, T-cell, 24 h, anti-CD3/anti-CD28 stimulation, IL-2 production by ELISA
Outline: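 IL-2 secretion was measured by ELISA of culture supernatant after 24 h of TCR stimulation. Stimulation used anti-CD3 coated at 1 μg/mL and 1 μg/mL soluble anti-CD28 on human blood CD4+ helper T cells without HLA-DR-expressing APCs, with compound or vehicle present.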

[2] = test system: HLA-DR4 restricted mouse T cell hybridoma line (DR4.CII.36.8) with HLA-DRB1*04:01-expressing Boleth cells; test: HLA-DR4-restricted peptide-specific T cell-based assay (hybridoma assay); settings: Mus musculus, T-cell, 6 h, inhibition of IL-2 production, CII259-273 peptide presented by Boleth cells
Outline: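 IC50 values derive from 4-parameter logistic fits of IL-2 AlphaLISA signal over 8-point duplicate titrations. Compound and HLA-DRB1*04:01 Boleth APCs were preincubated 1 h, 37° C., before adding CII259-273-restricted DR4.CII.36.8 hybridoma cells with peptide for 6 h at 37° C., in DMEM/1% FCS.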

HLA-DRB1*0401 = HLA-DRB1*0401 (Homo sapiens (Human), UniProt P01903+P01911, A100K/A169T/DEL228-266/F76Y/I96L/K127E/L162R/M171V/N62H/P40V/Q125Y/R42H/S133A/S149N/S66Y/V115G/V209L/W38E); test: HLA-DR4 HTRF assay; assay type: binding; settings: inhibition of loading of Alexa Fluor 647-labeled Cit-CII peptide onto HLA-DR4 (CLIP cleaved)
Outline: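 HLA-DRB1*04:01 construct (α/β fused to human Fc, CLIP pre-cleaved by HRV3C overnight at 4° C) at 3 nM was preincubated 45 min with compound and 1 nM anti-Fc-Tb donor, then 40 nM Alexa647-Cit-CII1236-1249 peptide added. After 90 min at 37° C, the 665/620 nm HTRF ratio gave % inhibition; IC50 by nonlinear regression.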

SMILES	pIC50 [1]	pIC50 [2]	pIC50 (HLA-DRB1*0401)
CNC(=O)c1ccc([C@@H](Oc2ccc3c(c2)OCCC3=O)c2ccncc2)cc1 (single isomer, unassigned) [Example 34a, (*R)—N-methyl-4-(((4-oxochroman-7-yl)oxy)(pyridin-4-yl)methyl)benzamide]	5.00	4.92	6.10
O=C1CCOc2cc(O[C@H](c3ccncc3)c3cccc(O)c3)ccc21 (single isomer, unassigned) [Example 5a, (*R)-7-((3-Hydroxyphenyl)(pyridin-4-yl)methoxy)chroman-4-one]	5.55	5.72	4.85
NC(=O)c1ccc([C@@H](Oc2ccc3c(c2-c2ccc(-c4ccccc4)cc2)OCCC3=O)c2ccncc2)cc1 (single isomer, unassigned) [Example 79a, (*R)-4-(((8-([1,1′-biphenyl]-4-yl)-4-oxochroman-7-yl)oxy)(pyridin-4-yl)methyl)benzamide]	5.51	6.33	4.55
Cc1c(O[C@H](c2ccc(C(N)=O)cc2)c2ccnc(CCC(=O)O)c2)ccc2c1OCCC2=O (single isomer, unassigned) [Example 87a]	< 4.82	6.08	6.24
Cc1c(O[C@H](c2ccncc2)c2ccc(C(N)=O)cc2OCc2ccccc2)ccc2c1OCCC2=O (single isomer, unassigned) [Example 86a, (*R)-3-(benzyloxy)-4-(((8-methyl-4-oxochroman-7-yl)oxy)(pyridin-4-yl)methyl)benzamide]	5.60	7.14	6.13
Cc1c(O[C@@H](c2ccc(C(N)=O)cc2)c2cccc(C#N)c2)ccc2c1OCCC2=O (single isomer, unassigned) [Example 60b, (*S)-4-((3-cyanophenyl)((8-methyl-4-oxochroman-7-yl)oxy)methyl)benzamide]	5.00	5.64	5.70
NC(=O)c1ccc([C@H](Oc2ccc3c(c2)OCCC3=O)c2ccnc(C(F)(F)F)c2)cc1 (single isomer, unassigned) [Example 18b, (*S)-4-(((4-oxochroman-7-yl)oxy)(2-(trifluoromethyl)pyridin-4-yl)methyl)benzamide]	5.00	4.92	6.02
COc1ccc(COc2ccc([C@H](Oc3ccc4c(c3)OCCC4=O)c3ccncc3)cc2)cc1 (single isomer, unassigned) [Example 17b, (*S)-7-((4-((4-Methoxybenzyl)oxy)phenyl)(pyridin-4-yl)methoxy)chroman-4-one]	5.32	5.11	5.31
CC[C@@H]1CC(=O)c2ccc(OCc3ccnc(C)c3)cc2O1 (single isomer, unassigned) [Example 118a, (*R)-2-ethyl-7-((2-methylpyridin-4-yl)methoxy)chroman-4-one]	< 4.82	5.12	6.02
Cc1c(OC2CCc3cc(C(N)=O)ccc32)ccc2c1OCCC2=O (racemic) [Example 121, (R,S)-1-((8-Methyl-4-oxochroman-7-yl)oxy)-2,3-dihydro-1H-indene-5-carboxamide]	< 4.82	5.09	6.20
O=C1CCOc2cc(OC(c3ccccc3)c3cccnc3)ccc21 (racemic) [Example 115, (R,S)-7-(Phenyl(pyridin-3-yl)methoxy)chroman-4-one]	4.82	4.92	5.30
Cc1c(O[C@H](c2ccncc2)c2ccc(C(N)=O)cc2OC(C)C)ccc2c1OCCC2=O (single isomer, unassigned) [Example 84a, (*R)-3-isopropoxy-4-(((8-methyl-4-oxochroman-7-yl)oxy)(pyridin-4-yl)methyl)benzamide]	6.33	6.10	5.92
CC(C)c1cc2c(cc1O[C@H](c1ccncc1)c1ccc(C(N)=O)cc1)OCCC2=O (single isomer, unassigned) [Example 76b, (*S)-4-(((6-isopropyl-4-oxochroman-7-yl)oxy)(pyridin-4-yl)methyl)benzamide]	4.82	5.51	6.00
CC(C)c1c(O[C@H](c2ccncc2)c2ccc(C(N)=O)cc2)ccc2c1OCCC2=O (single isomer, unassigned) [Example 75b, (*S)-4-(((8-isopropyl-4-oxochroman-7-yl)oxy)(pyridin-4-yl)methyl)benzamide]	5.03	6.74	6.20
CC(C)c1cc2c(cc1O[C@@H](c1ccncc1)c1ccc(C(N)=O)cc1)OCCC2=O (single isomer, unassigned) [Example 76a, (*R)-4-(((6-isopropyl-4-oxochroman-7-yl)oxy)(pyridin-4-yl)methyl)benzamide]	5.66	6.49	6.19
CCC1COc2cc(OCc3ccncc3)ccc2C1=O (racemic) [Example 120, (R,S)-3-Ethyl-7-(pyridin-4-ylmethoxy)chroman-4-one]	< 4.82	5.29	5.92
NC(=O)c1ccc([C@@H](Oc2ccc3c(c2)O[C@@H](c2ccccc2)CC3=O)c2ccncc2)cc1 (single isomer, unassigned) [Example 43a, 4-((*R)—(((*R)-4-oxo-2-phenylchroman-7-yl)oxy)(pyridin-4-yl)methyl)benzamide]	5.35	6.13	5.44
NC(=O)c1ccc([C@@H](Oc2ccc3c(c2-c2ccccc2)OCCC3=O)c2ccncc2)cc1 (single isomer, unassigned) [Example 53a, (*R)-4-(((4-oxo-8-phenylchroman-7-yl)oxy)(pyridin-4-yl)methyl)benzamide]	5.68	6.13	6.10
Cc1c(O[C@@H](c2ccncc2)c2ccc(C(N)=O)cc2OCc2ccccc2)ccc2c1OCCC2=O (single isomer, unassigned) [Example 86b, (*S)-3-(benzyloxy)-4-(((8-methyl-4-oxochroman-7-yl)oxy)(pyridin-4-yl)methyl)benzamide]	5.85	5.77	6.00
COc1ccc([C@@H](Oc2ccc3c(c2)OCCC3=O)c2ccncc2)cc1 (single isomer, unassigned) [Example 12a, (*R)-7-((4-Methoxyphenyl)(pyridin-4-yl)methoxy)chroman-4-one]	5.00	5.59	5.70
NC(=O)c1ccc([C@H](Oc2ccc3c(c2)OCCC3=O)c2ccnc(-c3ccccc3)c2)cc1 (single isomer, unassigned) [Example 26b, (*S)-4-(((4-oxochroman-7-yl)oxy)(2-phenylpyridin-4-yl)methyl)benzamide]	4.82	5.80	4.06
COc1cc(O[C@@H](c2ccncc2)c2ccc(C(N)=O)cc2)cc2c1C(=O)CCO2 (single isomer, unassigned) [Example 77a, (*R)-4-(((5-methoxy-4-oxochroman-7-yl)oxy)(pyridin-4-yl)methyl)benzamide]	< 4.82	5.04	5.77
Cc1c(O[C@H](c2ccc(C(N)=O)cc2)c2cccc(C#N)c2)c(F)cc2c1OCCC2=O (single isomer, unassigned) [Example 92a, (*R)-4-((3-cyanophenyl)((6-fluoro-8-methyl-4-oxochroman-7-yl)oxy)methyl)benzamide]	5.00	6.51	6.52
NC(=O)c1ccc([C@@H](Oc2ccc3c(c2)OCCC3=O)c2ccncc2C(F)(F)F)cc1 (single isomer, unassigned) [Example 19a, (*R)-4-(((4-oxochroman-7-yl)oxy)(3-(trifluoromethyl)pyridin-4-yl)methyl)benzamide]	5.74	5.44	6.09
NC(=O)c1ccc([C@@H](Oc2ccc3c(c2F)OCCC3=O)c2ccncc2)cc1 (single isomer, unassigned) [Example 50a, (*R)-4-(((8-Fluoro-4-oxochroman-7-yl)oxy)(pyridin-4-yl)methyl)benzamide]	5.00	6.62	5.72
CCc1cc2c(cc1O[C@@H](c1ccncc1)c1ccc(C(N)=O)cc1)OCCC2=O (single isomer, unassigned) [Example 74a, (*R)-4-(((6-ethyl-4-oxochroman-7-yl)oxy)(pyridin-4-yl)methyl)benzamide]	5.66	6.92	6.26
CNC(=O)c1ccc([C@H](Oc2ccc3c(c2)OCCC3=O)c2ccncc2)cc1 (single isomer, unassigned) [Example 34b, (*S)—N-methyl-4-(((4-oxochroman-7-yl)oxy)(pyridin-4-yl)methyl)benzamide]	< 4.82	< 4.82	6.16
